Reference: ChEMBL document CHEMBL3885881, “DrugMatrix”

Species: Rattus norvegicus
Assay: DrugMatrix - Regimen: Daily Repeat
Type: toxicity, organism-based, Sprague-Dawley
Parameters: regimen Daily Repeat, gender Male, age 6-8 weeks
Settings: in vivo, po, 25 mg/kg, route oral GAVAGE, dose level Low, vehicle .5 % CMC; for ABSOLUTE BASOPHIL / ABSOLUTE EOSINOPHIL / ABSOLUTE LYMPHOCYTE / ABSOLUTE MONOCYTE / ABSOLUTE SEGMENTED NEUTROPHIL / BASOPHIL / EOSINOPHIL / ERYTHROCYTE COUNT / HEMATOCRIT / HEMOGLOBIN / LEUKOCYTE COUNT / LYMPHOCYTE / MEAN CORPUSCULAR HEMOGLOBIN / MEAN CORPUSCULAR HEMOGLOBIN CONCENTRATION / MEAN CORPUSCULAR VOLUME / MONOCYTE / NEUTROPHIL / NUCLEATED RED BLOOD CELLS / PLATELET COUNT: tissue Blood; for ALANINE AMINOTRANSFERASE / ALBUMIN / ALKALINE PHOSPHATASE / ASPARTATE AMINOTRANSFERASE / BLOOD UREA NITROGEN / CARBON DIOXIDE / CHLORIDE / CHOLESTEROL / CREATINE PHOSPHOKINASE / CREATININE / GLUCOSE / LACTATE DEHYDROGENASE / LIPASE / PHOSPHORUS / POTASSIUM / SODIUM / TOTAL BILIRUBIN / TOTAL PROTEIN / URIC ACID: tissue Plasma

SMILES: COC(=O)Nc1nc2ccc([S+]([O-])c3ccccc3)cc2[nH]1 (stereo unspecified) [OXFENDAZOLE]
- ABSOLUTE BASOPHIL (72 h, time 3 day): 0 CELLS/uL
- ABSOLUTE EOSINOPHIL (72 h, time 3 day): 48 CELLS/uL
- ABSOLUTE LYMPHOCYTE (72 h, time 3 day): 11822 CELLS/uL
- ABSOLUTE MONOCYTE (72 h, time 3 day): 187.33 CELLS/uL
- ABSOLUTE SEGMENTED NEUTROPHIL (72 h, time 3 day): 2342.67 CELLS/uL
- BASOPHIL (72 h, time 3 day): 0%
- EOSINOPHIL (72 h, time 3 day): 0.33%
- ERYTHROCYTE COUNT (72 h, time 3 day): 6.05 x10E6/uL
- HEMATOCRIT (72 h, time 3 day): 36.2%
- HEMOGLOBIN (72 h, time 3 day): 13.87 G/DL
- LEUKOCYTE COUNT (72 h, time 3 day): 14.4 x10E3/uL
- LYMPHOCYTE (72 h, time 3 day): 82%
- MEAN CORPUSCULAR HEMOGLOBIN (72 h, time 3 day): 22.93 pg
- MEAN CORPUSCULAR HEMOGLOBIN CONCENTRATION (72 h, time 3 day): 38.33 G/DL
- MEAN CORPUSCULAR VOLUME (72 h, time 3 day): 59.8 fL
- MONOCYTE (72 h, time 3 day): 1.33%
- NEUTROPHIL (72 h, time 3 day): 16.33%
- NUCLEATED RED BLOOD CELLS (72 h, time 3 day): 0 /100WBC
- PLATELET COUNT (72 h, time 3 day): 1268.67 x10E3/uL
- ALANINE AMINOTRANSFERASE (72 h, time 3 day): 56 u/L
- ALBUMIN (72 h, time 3 day): 4.13 G/DL
- ALKALINE PHOSPHATASE (72 h, time 3 day): 355 u/L
- ASPARTATE AMINOTRANSFERASE (72 h, time 3 day): 78.67 u/L
- BLOOD UREA NITROGEN (72 h, time 3 day): 14 mg/dL
- CARBON DIOXIDE (72 h, time 3 day): 25 mmol/L
- CHLORIDE (72 h, time 3 day): 99 MEQ/L
- CHOLESTEROL (72 h, time 3 day): 78.67 mg/dL
- CREATINE PHOSPHOKINASE (72 h, time 3 day): 173.33 u/L
- CREATININE (72 h, time 3 day): 0.15 mg/dL
- GLUCOSE (72 h, time 3 day): 161.67 mg/dL
- LACTATE DEHYDROGENASE (72 h, time 3 day): 153 u/L
- LIPASE (72 h, time 3 day): 10 u/L
- PHOSPHORUS (72 h, time 3 day): 13.1 mg/dL
- POTASSIUM (72 h, time 3 day): 8.18 MEQ/L
- SODIUM (72 h, time 3 day): 142.9 MEQ/L
- TOTAL BILIRUBIN (72 h, time 3 day): 0.2 mg/dL
- TOTAL PROTEIN (72 h, time 3 day): 5.77 G/DL
- URIC ACID (72 h, time 3 day): 2.07 mg/dL
- ABSOLUTE BASOPHIL (120 h, time 5 day): 0 CELLS/uL
- ABSOLUTE EOSINOPHIL (120 h, time 5 day): 0 CELLS/uL
- ABSOLUTE LYMPHOCYTE (120 h, time 5 day): 12550 CELLS/uL
- ABSOLUTE MONOCYTE (120 h, time 5 day): 0 CELLS/uL
- ABSOLUTE SEGMENTED NEUTROPHIL (120 h, time 5 day): 983.33 CELLS/uL
- BASOPHIL (120 h, time 5 day): 0%
- EOSINOPHIL (120 h, time 5 day): 0%
- ERYTHROCYTE COUNT (120 h, time 5 day): 5.35 x10E6/uL
- HEMATOCRIT (120 h, time 5 day): 31.93%
- HEMOGLOBIN (120 h, time 5 day): 12.77 G/DL
- LEUKOCYTE COUNT (120 h, time 5 day): 13.53 x10E3/uL
- LYMPHOCYTE (120 h, time 5 day): 93%
- MEAN CORPUSCULAR HEMOGLOBIN (120 h, time 5 day): 23.9 pg
- MEAN CORPUSCULAR HEMOGLOBIN CONCENTRATION (120 h, time 5 day): 40 G/DL
- MEAN CORPUSCULAR VOLUME (120 h, time 5 day): 59.73 fL
- MONOCYTE (120 h, time 5 day): 0%
- NEUTROPHIL (120 h, time 5 day): 7%
- NUCLEATED RED BLOOD CELLS (120 h, time 5 day): 0 /100WBC
- PLATELET COUNT (120 h, time 5 day): 856.67 x10E3/uL
- ALANINE AMINOTRANSFERASE (120 h, time 5 day): 57.67 u/L
- ALBUMIN (120 h, time 5 day): 4.17 G/DL
- ALKALINE PHOSPHATASE (120 h, time 5 day): 330.67 u/L
- ASPARTATE AMINOTRANSFERASE (120 h, time 5 day): 89 u/L
- BLOOD UREA NITROGEN (120 h, time 5 day): 16 mg/dL
- CARBON DIOXIDE (120 h, time 5 day): 24 mmol/L
- CHLORIDE (120 h, time 5 day): 100.67 MEQ/L
- CHOLESTEROL (120 h, time 5 day): 74 mg/dL
- CREATINE PHOSPHOKINASE (120 h, time 5 day): 346.33 u/L
- CREATININE (120 h, time 5 day): 0.21 mg/dL
- GLUCOSE (120 h, time 5 day): 161.67 mg/dL
- LACTATE DEHYDROGENASE (120 h, time 5 day): 356.67 u/L
- LIPASE (120 h, time 5 day): 9 u/L
- PHOSPHORUS (120 h, time 5 day): 12.83 mg/dL
- POTASSIUM (120 h, time 5 day): 7.04 MEQ/L
- SODIUM (120 h, time 5 day): 141.83 MEQ/L
- TOTAL BILIRUBIN (120 h, time 5 day): 0.2 mg/dL
- TOTAL PROTEIN (120 h, time 5 day): 5.9 G/DL
- URIC ACID (120 h, time 5 day): 2.33 mg/dL
